These are literature values, as cited in PMC11259557 (Cancer Medicine, 2024).

As a reminder, the half-life is the time needed for the level to fall by half in the phase considered.

The structures appear in SMILES notation. Read-outs that look alike come from different tables or passages of the source.

For series [1], the system named is multiple myeloma.
On the set-up of series [2]: method as in PMID 26337806, PMID 27196567.

For `CC(C)C[C@H](NC(=O)[C@H](CCc1ccccc1)NC(=O)CN1CCOCC1)C(=O)N[C@@H](Cc1ccccc1)C(=O)N[C@@H](CC(C)C)C(=O)[C@@]1(C)CO1` [carfilzomib], in series [1] (phase I trial), the DCR is 39%.

For `CC(C)C[C@H](NC(=O)[C@@H](NC(=O)c1cccc(-c2ccccc2)n1)[C@@H](C)O)B(O)O` [delanzomib], the “incidence of grade ≥3 diarrhea” value is reported as 19% and the “incidence of peripheral neuropathy” value was 21%.

`CC(C)C[C@H](NC(=O)CNC(=O)c1cc(Cl)ccc1Cl)B(O)O` [ixazomib]: the “incidence of decreased platelet counts” value was 43%. Where the note is “patients”, the “peripheral neuropathy, any grade” value was 27% and the “peripheral neuropathy, grade 3” value is 2%. For the setting “phase 1 study in RRMM”, the incidence of diarrhea is given as 38%, the “incidence of grade ≥3 diarrhea” value is reported as 17%, the “incidence of peripheral neuropathy” value is recorded as 20% and the “rate of grade ≥3 AEs” value was 53%. Also, for the setting “real-world settings”, the incidence of diarrhea was 26.2%, the “incidence of peripheral neuropathy” value is 35%, the “incidence of ≥grade 3 diarrhea” value is recorded as 13.9% and the “incidence of ≥grade 3 peripheral neuropathy” value was 3%. Besides, the “participants who discontinued due to AEs” value (study by Kumar et al.) is on record as 12%. In addition, in series [1] (monotherapy), the DCR is given as 50%. Besides, in series [2], the T max is 1 to 1.5 h and the half-life was 140 to 150 h.

Take `COC[C@H](NC(=O)c1cnc(C)s1)C(=O)N[C@@H](COC)C(=O)N[C@@H](Cc1ccccc1)C(=O)[C@@]1(C)CO1` [oprozomib]: the “patients who experience diarrhea” value is listed as “Nearly all patients”.
